# Data: paper PMC10364322, “Evaluation of chronic drug-induced electrophysiological and cytotoxic effects using human-induced pluripotent stem cell-derived cardiomyocytes (hiPSC-CMs)” (Frontiers in Pharmacology, 2023)
# Where two headings read alike, the source gives them in different places.
# System: hiPSC-CMs (iCell-Cardiomyocytes^2)
# In short: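 Spontaneous field potentials and impedance recorded by MEA at 37°C, 5% CO2 in hiPSC-CM monolayers (50 K/well, fibronectin-coated), 5-min baseline before compound; final DMSO 0.1%. Values are percent change from baseline, mean ± SD, compared with DMSO by Wilcoxon-Mann Whitney, interpreted against DMSO tolerance intervals.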
structure (smiles),measurement,setting,value
CC(C)(Sc1cc(C(C)(C)C)c(O)c(C(C)(C)C)c1)Sc1cc(C(C)(C)C)c(O)c(C(C)(C)C)c1 [Probucol],"BR (beating rate), % change from baseline","0.3 µM, 2h",0±1%
same,"Beating below threshold, number of observations/total well numbers","0.3 µM, 2h",0/5
same,"Cessation of beating, number of observations/total well numbers","0.3 µM, 2h",0/5
same,"EAD, number of observations/total well numbers","0.3 µM, 2h",0/5
same,"FPD (field-potential duration), % change from baseline","0.3 µM, 2h",2.5±1.9%
same,"FPDc (field-potential duration corrected by beat-rate), % change from baseline","0.3 µM, 2h",2.6±1.7%
same,"Flat T-wave-like, number of observations/total well numbers","0.3 µM, 2h",0/5
same,"BR (beating rate), % change from baseline","0.3 µM, 24h",4±2%
same,"Beating below threshold, number of observations/total well numbers","0.3 µM, 24h",0/5
same,"Cessation of beating, number of observations/total well numbers","0.3 µM, 24h",0/5
same,"EAD, number of observations/total well numbers","0.3 µM, 24h",0/5
same,"FPD (field-potential duration), % change from baseline","0.3 µM, 24h",2.5±6.9%
same,"FPDc (field-potential duration corrected by beat-rate), % change from baseline","0.3 µM, 24h",3.8±6.8%
same,"Flat T-wave-like, number of observations/total well numbers","0.3 µM, 24h",1/5
same,"BR (beating rate), % change from baseline","0.3 µM, 48h",-1±1%
same,"Beating below threshold, number of observations/total well numbers","0.3 µM, 48h",0/5
same,"Cessation of beating, number of observations/total well numbers","0.3 µM, 48h",0/5
same,"EAD, number of observations/total well numbers","0.3 µM, 48h",0/5
same,"FPD (field-potential duration), % change from baseline","0.3 µM, 48h",5.1±4.5%
same,"FPDc (field-potential duration corrected by beat-rate), % change from baseline","0.3 µM, 48h",4.5±4.4%
same,"Flat T-wave-like, number of observations/total well numbers","0.3 µM, 48h",0/5
same,"BR (beating rate), % change from baseline","0.3 µM, 72h",-6±3%
same,"Beating below threshold, number of observations/total well numbers","0.3 µM, 72h",0/5
same,"Cessation of beating, number of observations/total well numbers","0.3 µM, 72h",0/5
same,"EAD, number of observations/total well numbers","0.3 µM, 72h",0/5
same,"FPD (field-potential duration), % change from baseline","0.3 µM, 72h",1.8±4.6%
same,"FPDc (field-potential duration corrected by beat-rate), % change from baseline","0.3 µM, 72h",-0.2±4.7%
same,"Flat T-wave-like, number of observations/total well numbers","0.3 µM, 72h",0/5
same,"BR (beating rate), % change from baseline","0.3 µM, 96h",0±7%
same,"Beating below threshold, number of observations/total well numbers","0.3 µM, 96h",0/5
same,"Cessation of beating, number of observations/total well numbers","0.3 µM, 96h",0/5
same,"EAD, number of observations/total well numbers","0.3 µM, 96h",0/5
same,"FPD (field-potential duration), % change from baseline","0.3 µM, 96h",2.4±5.7%
same,"FPDc (field-potential duration corrected by beat-rate), % change from baseline","0.3 µM, 96h",2.7±6.2%
same,"Flat T-wave-like, number of observations/total well numbers","0.3 µM, 96h",0/5
same,"BR (beating rate), % change from baseline","1 µM, 2h",0±1%
same,"Beating below threshold, number of observations/total well numbers","1 µM, 2h",0/4
same,"Cessation of beating, number of observations/total well numbers","1 µM, 2h",0/4
same,"EAD, number of observations/total well numbers","1 µM, 2h",0/4
same,"FPD (field-potential duration), % change from baseline","1 µM, 2h",0.8±4.5%
same,"FPDc (field-potential duration corrected by beat-rate), % change from baseline","1 µM, 2h",1.1±4.5%
same,"Flat T-wave-like, number of observations/total well numbers","1 µM, 2h",0/4
same,"BR (beating rate), % change from baseline","1 µM, 24h",6±1%
same,"Beating below threshold, number of observations/total well numbers","1 µM, 24h",0/4
same,"Cessation of beating, number of observations/total well numbers","1 µM, 24h",0/4
same,"EAD, number of observations/total well numbers","1 µM, 24h",0/4
same,"FPD (field-potential duration), % change from baseline","1 µM, 24h",13±11.4%
same,"FPDc (field-potential duration corrected by beat-rate), % change from baseline","1 µM, 24h",15.1±11.7%
same,"Flat T-wave-like, number of observations/total well numbers","1 µM, 24h",0/4
same,"BR (beating rate), % change from baseline","1 µM, 48h",0±2%
same,"Beating below threshold, number of observations/total well numbers","1 µM, 48h",0/4
same,"Cessation of beating, number of observations/total well numbers","1 µM, 48h",0/4
same,"EAD, number of observations/total well numbers","1 µM, 48h",0/4
same,"FPD (field-potential duration), % change from baseline","1 µM, 48h",12.6±11.7%
same,"FPDc (field-potential duration corrected by beat-rate), % change from baseline","1 µM, 48h",12.5±11.6%
same,"Flat T-wave-like, number of observations/total well numbers","1 µM, 48h",0/4
same,"BR (beating rate), % change from baseline","1 µM, 72h",0±5%
same,"Beating below threshold, number of observations/total well numbers","1 µM, 72h",0/4
same,"Cessation of beating, number of observations/total well numbers","1 µM, 72h",0/4
same,"EAD, number of observations/total well numbers","1 µM, 72h",0/4
same,"FPD (field-potential duration), % change from baseline","1 µM, 72h",8.9±8.5%
same,"FPDc (field-potential duration corrected by beat-rate), % change from baseline","1 µM, 72h",8.8±8.8%
same,"Flat T-wave-like, number of observations/total well numbers","1 µM, 72h",0/4
same,"BR (beating rate), % change from baseline","1 µM, 96h",2±3%
same,"Beating below threshold, number of observations/total well numbers","1 µM, 96h",0/4
same,"Cessation of beating, number of observations/total well numbers","1 µM, 96h",0/4
same,"EAD, number of observations/total well numbers","1 µM, 96h",0/4
same,"FPD (field-potential duration), % change from baseline","1 µM, 96h",9.2±9.9%
same,"FPDc (field-potential duration corrected by beat-rate), % change from baseline","1 µM, 96h",10.3±10.9%
same,"Flat T-wave-like, number of observations/total well numbers","1 µM, 96h",0/4
same,"BR (beating rate), % change from baseline","3 µM, 72h",6±4%
same,"Beating below threshold, number of observations/total well numbers","3 µM, 72h",0/5
same,"Cessation of beating, number of observations/total well numbers","3 µM, 72h",0/5
same,"EAD, number of observations/total well numbers","3 µM, 72h",0/5
same,"FPD (field-potential duration), % change from baseline","3 µM, 72h",1.7±4.6%
same,"FPDc (field-potential duration corrected by beat-rate), % change from baseline","3 µM, 72h",3.6±3.3%
same,"Flat T-wave-like, number of observations/total well numbers","3 µM, 72h",0/5
same,"BR (beating rate), % change from baseline","3 µM, 96h",14±5 %
same,"Beating below threshold, number of observations/total well numbers","3 µM, 96h",0/5
same,"Cessation of beating, number of observations/total well numbers","3 µM, 96h",0/5
same,"EAD, number of observations/total well numbers","3 µM, 96h",0/5
same,"FPD (field-potential duration), % change from baseline","3 µM, 96h",-4.1±6.5%
same,"FPDc (field-potential duration corrected by beat-rate), % change from baseline","3 µM, 96h",0.1±7%
same,"Flat T-wave-like, number of observations/total well numbers","3 µM, 96h",0/5
same,"BR (beating rate), % change from baseline","3 µM, 2h",2±4%
same,"Beating below threshold, number of observations/total well numbers","3 µM, 2h",0/5
same,"Cessation of beating, number of observations/total well numbers","3 µM, 2h",0/5
same,"EAD, number of observations/total well numbers","3 µM, 2h",0/5
same,"FPD (field-potential duration), % change from baseline","3 µM, 2h",3.7±3.5%
same,"FPDc (field-potential duration corrected by beat-rate), % change from baseline","3 µM, 2h",4.4±2.3%
same,"Flat T-wave-like, number of observations/total well numbers","3 µM, 2h",0/5
same,"BR (beating rate), % change from baseline","3 µM, 24h",7±0%
same,"Beating below threshold, number of observations/total well numbers","3 µM, 24h",0/5
same,"Cessation of beating, number of observations/total well numbers","3 µM, 24h",0/5
same,"EAD, number of observations/total well numbers","3 µM, 24h",0/5
same,"FPD (field-potential duration), % change from baseline","3 µM, 24h",8.9±1.5%
same,"FPDc (field-potential duration corrected by beat-rate), % change from baseline","3 µM, 24h",11.3±1.4%
same,"Flat T-wave-like, number of observations/total well numbers","3 µM, 24h",0/5
same,"BR (beating rate), % change from baseline","3 µM, 48h",7±2%
same,"Beating below threshold, number of observations/total well numbers","3 µM, 48h",0/5
same,"Cessation of beating, number of observations/total well numbers","3 µM, 48h",0/5
same,"EAD, number of observations/total well numbers","3 µM, 48h",0/5
same,"FPD (field-potential duration), % change from baseline","3 µM, 48h",2.8±2.5%
same,"FPDc (field-potential duration corrected by beat-rate), % change from baseline","3 µM, 48h",4.9±2.3%
same,"Flat T-wave-like, number of observations/total well numbers","3 µM, 48h",0/5
same,"BR (beating rate), % change from baseline","10 µM, 2h",1±2%
same,"Beating below threshold, number of observations/total well numbers","10 µM, 2h",0/5
same,"Cessation of beating, number of observations/total well numbers","10 µM, 2h",0/5
same,"EAD, number of observations/total well numbers","10 µM, 2h",0/5
same,"FPD (field-potential duration), % change from baseline","10 µM, 2h",5.5±2.1%
same,"FPDc (field-potential duration corrected by beat-rate), % change from baseline","10 µM, 2h",6±2.3%
same,"Flat T-wave-like, number of observations/total well numbers","10 µM, 2h",0/5
same,"BR (beating rate), % change from baseline","10 µM, 24h",10±3%
same,"Beating below threshold, number of observations/total well numbers","10 µM, 24h",0/5
same,"Cessation of beating, number of observations/total well numbers","10 µM, 24h",0/5
same,"EAD, number of observations/total well numbers","10 µM, 24h",0/5
same,"FPD (field-potential duration), % change from baseline","10 µM, 24h",11.3±10%
same,"FPDc (field-potential duration corrected by beat-rate), % change from baseline","10 µM, 24h",15.1±11%
same,"Flat T-wave-like, number of observations/total well numbers","10 µM, 24h",0/5
same,"BR (beating rate), % change from baseline","10 µM, 48h",17±3%
same,"Beating below threshold, number of observations/total well numbers","10 µM, 48h",0/5
same,"Cessation of beating, number of observations/total well numbers","10 µM, 48h",0/5
same,"EAD, number of observations/total well numbers","10 µM, 48h",0/5
same,"FPD (field-potential duration), % change from baseline","10 µM, 48h",-0.8±13.7%
same,"FPDc (field-potential duration corrected by beat-rate), % change from baseline","10 µM, 48h",4.7±14.8%
same,"Flat T-wave-like, number of observations/total well numbers","10 µM, 48h",1/5
same,"BR (beating rate), % change from baseline","10 µM, 72h",26±7 %
same,"Beating below threshold, number of observations/total well numbers","10 µM, 72h",0/5
same,"Cessation of beating, number of observations/total well numbers","10 µM, 72h",0/5
same,"EAD, number of observations/total well numbers","10 µM, 72h",0/5
same,"FPD (field-potential duration), % change from baseline","10 µM, 72h",-10.2±17%
same,"FPDc (field-potential duration corrected by beat-rate), % change from baseline","10 µM, 72h",-2.8±19.3%
same,"Flat T-wave-like, number of observations/total well numbers","10 µM, 72h",1/5
same,"BR (beating rate), % change from baseline","10 µM, 96h",48±6 %
same,"Beating below threshold, number of observations/total well numbers","10 µM, 96h",0/5
same,"Cessation of beating, number of observations/total well numbers","10 µM, 96h",0/5
same,"EAD, number of observations/total well numbers","10 µM, 96h",0/5
same,"FPD (field-potential duration), % change from baseline","10 µM, 96h",-14.5±9.4%
same,"FPDc (field-potential duration corrected by beat-rate), % change from baseline","10 µM, 96h",-2.5±12.4%
same,"Flat T-wave-like, number of observations/total well numbers","10 µM, 96h",2/5
same,prolongation of FPD / FPDc,all concentrations tested,did not induce a statistically significant prolongation of the FPD
